According to US20260027068A1, “METHODS OF ADM[…]-KETAMINE” (Perception Neuroscience, Inc., priority 2022, published 2026):

System: subjects with TRD
Assay: Adverse events (TEAEs, SAEs) in the TRD study
Assay type: in vivo, human
Details: for Number of subjects with TEAE, Mild / Number of subjects with TEAE, Moderate / Number of subjects with TEAE, Severe / Percent of subjects with TEAE, Mild / Percent of subjects with TEAE, Moderate / Percent of subjects with TEAE, Severe: maximum severity
Excerpt: The definitions of an AE and SAE can be found in Section F. AEs were reported by the subject (or, when appropriate, by a caregiver, surrogate, or the subject's legally authorized representative). The Investigator and any designees were responsible for detecting, documenting, and recording events that meet the definition of an AE or SAE and remained responsible for following up AEs that were serious, considered related to the study treatment or study procedures, or that caused the subject to discontinue from the study.
All AEs were collected from the signing of the ICF until the second follow-up visit (Day 15) at the time points specified in the Schedule of Activities (Section C). Medical occurrences that began before the start of study treatment but after obtaining informed consent were recorded on the Medical History/Current Medical Conditions section of the CRF, not the AE section. All SAEs were recorded and reported to the Sponsor or designee within 24 hours as indicated in Section F. The Investigator submitted any updated SAE data to the Sponsor or designee within 24 hours of it being available. Investigators were not obligated to actively seek AE or SAE information after the conclusion of study participation. However, if the Investigator learns of any SAE, including a death, at any time after a subject has been discharged from the study, and he/she considers the event to be reasonably related to the study treatment or study participation, the Investigator must promptly notify the Sponsor or designee. The method of recording, evaluating, and assessing the causality of AEs and SAEs and the procedures for completing and transmitting SAE reports are provided in Section F.
An AE is any untoward medical occurrence in a patient or subject, temporally associated with the use of study treatment, whether or not considered related to the study treatment. An AE can therefore be any unfavorable and unintended sign (including an abnormal laboratory finding), symptom, or disease (new or exacerbated) temporally associated with the use of study treatment.
If an event is not an AE per the definition above, then it cannot be an SAE even if serious conditions are met (e.g., hospitalization for signs/symptoms of the disease under study). A Serious Adverse Event (SAE) is defined as any untoward medical occurrence that, at any dose: a) results in death; b) is life-threatening; c) requires inpatient hospitalization or prolongation of existing hospitalization; d) results in persistent disability/incapacity; or e) is a congenital anomaly/birth defect. The term “life-threatening” in the definition of “serious” refers to an event in which the subject was at risk of death at the time of the event. […] In general, hospitalization signifies that the subject has been detained (usually involving at least an overnight stay) at the hospital or emergency ward for observation and/or treatment that would not have been appropriate in the physician's office or outpatient setting. Complications that occur during hospitalization are AEs. If a complication prolongs hospitalization or fulfills any other serious criteria, the event is serious. When in doubt as to whether “hospitalization” occurred or was necessary, the AE should be considered serious. […] The term disability means a substantial disruption of a person's ability to conduct normal life functions.
(MedDRA; Version 23.0 or higher). Treatment-emergent adverse events (TEAEs) are AEs with onset or worsening after the start of study treatment. The AE summaries will be primarily based on TEAEs. The number and percentage of subjects with TEAEs will be summarized by treatment group, system organ class, and preferred term for all TEAEs, treatment-related TEAEs, SAEs, serious TEAEs, severe TEAEs, TEAEs of special interest, and all TEAEs leading to study drug discontinuation. All TEAEs will be further summarized by maximum severity and causality. The TEAEs of special interest will be identified in the SAP. […]

For `CN[C@@]1(c2ccccc2Cl)CCCCC1=O.Cl` [R(−)-ketamine, (2R)-2-(2-chlorophenyl)-2-(methylamino)cyclohexan-1-one], the “Number of subjects with Any adverse events (AE)” value (30 mg (n = 33)) was 11, the “Number of subjects with Serious TEAEs resulting in treatment discontinuation” value (30 mg (n = 33)) was 0 and the “Number of subjects with TEAE with outcome of death” value (30 mg (n = 33)) was 0. The “Number of subjects with TEAEs of COVID-19” value (30 mg (n = 33)) was 0, the “Number of subjects with TEAEs resulting in discontinuation from study” value (30 mg (n = 33)) was 0 and the “Number of subjects with TEAEs resulting in treatment discontinuation” value (30 mg (n = 33)) was 0. The “Number of subjects with Treatment-emergent SAE, Mild” value (30 mg (n = 33)) was 0, the “Number of subjects with Treatment-emergent SAE, Moderate” value (30 mg (n = 33)) was 0 and the “Number of subjects with Treatment-emergent SAE, Severe” value (30 mg (n = 33)) was 0. The “Number of subjects with Treatment-emergent adverse events (TEAE)” value (30 mg (n = 33)) was 11, the “Number of subjects with Treatment-emergent serious adverse events (SAE)” value (30 mg (n = 33)) was 0 and the “Number of subjects with Treatment-related TEAEs” value (30 mg (n = 33)) was 10. For the same compound, the “Number of subjects with Treatment-related and severe TEAEs” value (30 mg (n = 33)) was 0, the “Number of subjects with Treatment-related treatment-emergent SAEs” value (30 mg (n = 33)) was 0 and the “Percent of subjects with Any adverse events (AE)” value (30 mg (n = 33)) was “(33) %”. The “Percent of subjects with Serious TEAEs resulting in treatment discontinuation” value (30 mg (n = 33)) was “(0) %”, the “Percent of subjects with TEAE with outcome of death” value (30 mg (n = 33)) was “(0) %” and the “Percent of subjects with TEAEs of COVID-19” value (30 mg (n = 33)) was “(0) %”. The “Percent of subjects with TEAEs resulting in discontinuation from study” value (30 mg (n = 33)) was “(0) %”, the “Percent of subjects with TEAEs resulting in treatment discontinuation” value (30 mg (n = 33)) was “(0) %” and the “Percent of subjects with Treatment-emergent SAE, Mild” value (30 mg (n = 33)) was “(0) %”. The “Percent of subjects with Treatment-emergent SAE, Moderate” value (30 mg (n = 33)) was “(0) %”, the “Percent of subjects with Treatment-emergent SAE, Severe” value (30 mg (n = 33)) was “(0) %” and the “Percent of subjects with Treatment-emergent adverse events (TEAE)” value (30 mg (n = 33)) was “(33) %”. The “Percent of subjects with Treatment-emergent serious adverse events (SAE)” value (30 mg (n = 33)) was “(0) %”, the “Percent of subjects with Treatment-related TEAEs” value (30 mg (n = 33)) was “(30) %” and the “Percent of subjects with Treatment-related and severe TEAEs” value (30 mg (n = 33)) was “(0) %”. For the same compound, the “Percent of subjects with Treatment-related treatment-emergent SAEs” value (30 mg (n = 33)) was “(0) %”, the “Number of subjects with TEAE, Mild” value (30 mg (n = 33)) was 7 and the “Number of subjects with TEAE, Moderate” value (30 mg (n = 33)) was 4. The “Number of subjects with TEAE, Severe” value (30 mg (n = 33)) was 0, the “Percent of subjects with TEAE, Mild” value (30 mg (n = 33)) was “(21) %” and the “Percent of subjects with TEAE, Moderate” value (30 mg (n = 33)) was “(12) %”. The “Percent of subjects with TEAE, Severe” value (30 mg (n = 33)) was “(0) %”, the “Serious adverse events (SAEs)” value (30 mg or 60 mg single IV infusion) was “no serious adverse events” and the “Number of subjects with Any adverse events (AE)” value (60 mg (n = 35)) was 19. The “Number of subjects with Serious TEAEs resulting in treatment discontinuation” value (60 mg (n = 35)) was 0, the “Number of subjects with TEAE with outcome of death” value (60 mg (n = 35)) was 0 and the “Number of subjects with TEAEs of COVID-19” value (60 mg (n = 35)) was 0. The “Number of subjects with TEAEs resulting in discontinuation from study” value (60 mg (n = 35)) was 0, the “Number of subjects with TEAEs resulting in treatment discontinuation” value (60 mg (n = 35)) was 0 and the “Number of subjects with Treatment-emergent SAE, Mild” value (60 mg (n = 35)) was 0. For the same compound, the “Number of subjects with Treatment-emergent SAE, Moderate” value (60 mg (n = 35)) was 0, the “Number of subjects with Treatment-emergent SAE, Severe” value (60 mg (n = 35)) was 0 and the “Number of subjects with Treatment-emergent adverse events (TEAE)” value (60 mg (n = 35)) was 18. The “Number of subjects with Treatment-emergent serious adverse events (SAE)” value (60 mg (n = 35)) was 0, the “Number of subjects with Treatment-related TEAEs” value (60 mg (n = 35)) was 16 and the “Number of subjects with Treatment-related and severe TEAEs” value (60 mg (n = 35)) was 2. For the same compound, the “Number of subjects with Treatment-related treatment-emergent SAEs” value (60 mg (n = 35)) was 0, the “Percent of subjects with Any adverse events (AE)” value (60 mg (n = 35)) was “(54) %” and the “Percent of subjects with Serious TEAEs resulting in treatment discontinuation” value (60 mg (n = 35)) was “(0) %”. For the same compound, the “Percent of subjects with TEAE with outcome of death” value (60 mg (n = 35)) was “(0) %”, the “Percent of subjects with TEAEs of COVID-19” value (60 mg (n = 35)) was “(0) %” and the “Percent of subjects with TEAEs resulting in discontinuation from study” value (60 mg (n = 35)) was “(0) %”. The “Percent of subjects with TEAEs resulting in treatment discontinuation” value (60 mg (n = 35)) was “(0) %”, the “Percent of subjects with Treatment-emergent SAE, Mild” value (60 mg (n = 35)) was “(0) %” and the “Percent of subjects with Treatment-emergent SAE, Moderate” value (60 mg (n = 35)) was “(0) %”. For the same compound, the “Percent of subjects with Treatment-emergent SAE, Severe” value (60 mg (n = 35)) was “(0) %”, the “Percent of subjects with Treatment-emergent adverse events (TEAE)” value (60 mg (n = 35)) was “(51) %” and the “Percent of subjects with Treatment-emergent serious adverse events (SAE)” value (60 mg (n = 35)) was “(0) %”. For the same compound, the “Percent of subjects with Treatment-related TEAEs” value (60 mg (n = 35)) was “(46) %”, the “Percent of subjects with Treatment-related and severe TEAEs” value (60 mg (n = 35)) was “(6) %” and the “Percent of subjects with Treatment-related treatment-emergent SAEs” value (60 mg (n = 35)) was “(0) %”. For the same compound, the “Number of subjects with TEAE, Mild” value (60 mg (n = 35)) was 9, the “Number of subjects with TEAE, Moderate” value (60 mg (n = 35)) was 7 and the “Number of subjects with TEAE, Severe” value (60 mg (n = 35)) was 2. For the same compound, the “Percent of subjects with TEAE, Mild” value (60 mg (n = 35)) was “(26) %”, the “Percent of subjects with TEAE, Moderate” value (60 mg (n = 35)) was “(20) %” and the “Percent of subjects with TEAE, Severe” value (60 mg (n = 35)) was “(6) %”.
